In patent US20040063681A1, “Methods for using gold (III) complexes as anti-tumor and anti-HIV agents” (priority 2002, published 2004):

Tests used:
[1] = system: calf thymus DNA; test: UV-vis absorption titration with calf thymus DNA; assay type: binding
Experimental: The calf thymus DNA was purchased from Sigma-Aldrich Chemical Co. and was purified by phenol-chloroform extraction. The DNA was dissolved in buffer (5 mM Tris, 5 mM NaCl, pH 7.2). The concentration (per base pair) of calf thymus DNA was determined spectrophotometrically on the basic of ε260, 13,200 M^−1cm^−1bp.
Absorption Titration. The binding interaction of the gold(III) porphyrins to duplex DNA has been studied by UV-vis spectroscopy.
where [ctDNA] is the concentration of DNA, Δεap═|εA−εB| in which εA=Aobs/[complex], and Δε=|εB−εF|. εB and εF correspond to the extinction coefficient of DNA-bound gold(III) porphyrin and the free gold(III) porphyrins, respectively.
The effect of temperature on the intrinsic binding constants was investigated. Using the van't Hoff equation (2): […]

[2] = 1H-NMR stability experiments with GSH; assay type: physicochemical; settings: 72 h
Experimental: ^1H-NMR experiments. […] The pH was adjusted to 7.4 with NaOD, and the solution was degassed for 10 min by bubbling with nitrogen to minimize oxidation of GSH. Similar experimental setup was done for Complex 1j, except this analysis was carried out in D2O only. The electronic spectra of the resulting mixtures was then monitored for 72 h.
It is known that the chemical shifts of the pyrrolic protons are sensitive to the oxidation states of the gold center, and reduction of Au(III) to Au(I) or Au(0) is expected to be accompanied by spectral changes in the pyrrolic region.
Glutathione can be oxidized to form a disulfide bridged dimer (GSSG) with a mild oxidizing agent such as gold(III) complex. A previous study by Sun et al., Eur. J. Biochem. 267:5450-5457 (2000) established that GSSG is characterized by a doublet absorption peak at δH 3.30 ppm, assignable to β-CH2 group as depicted in Scheme 5. Scheme 5. Characteristic proton resonance absorptions for (a) GSH and (b) GSSG in D2O [drawing 29]
The results of the NMR studies indicate that illustrative Complexes 1a-1k are stable under physiologically relevant conditions.

[3] = Control UV-vis titration with sodium dodecyl sulfate instead of DNA; assay type: binding; settings: sodium dodecyl sulfate (0-5 μM) instead of DNA
Excerpt: See Neidle, S. DNA structure and recognition; Oxford University Press: Oxford, 1994; 74-79.

[4] = system: HeLa cells; test: Confocal microscopic experiment (cell morphology, AO/EB staining); assay type: cell-based, human; settings: 0.5 μM, 15 h incubation
Excerpt: Confocal Microscopic Experiment. By examining cell morphology using scanning confocal microscopy, the type of cell death can be recognized. The early phase of apoptosis is characterized by the formation of apoptotic bodies while the integrity of the cell membrane is maintained without cell lysis. On the contrary, necrosis is characterized by cell lysis with the internal cellular components such as DNA being exposed. Using suitable staining agents (ethidium bromide (EB) for DNA and acridine orange (AO) for cell membrane) normal, necrotic and apoptotic cells can be distinguished by laser confocal microscopy. See Chan et al., Inorg. Chem. 41:3161-3171 (2002).
The picture of the cells is depicted in FIG. 12. […] Importantly, no cellular DNA was exposed due to necrosis.

[5] = UV-vis stability study in buffer solution with and without glutathione; assay type: physicochemical; settings: room temperature
Experimental: UV-vis experiments. For UV-vis analysis, the absorption spectra of 2.5 μM (7 nmoles) of all studied complexes in (1:19) MeCN/Tris buffer solution was monitored over 72 h. […] The gold(III) solution was monitored over 48 h at room temperature and less than 10% decrease in the Soret band intensity was observed without any significant spectral shift in both the Soret and Q-bands.
Yet, no significant spectral shift and formation of new absorption bands were observed.
This finding confirms the excellent solution stability of 1j and 1k in physiologically related medium.
The precipitates are soluble in common organic solvent such as THF, CHCl3 and DMSO but insoluble in aqueous solution.

[6] = system: Human Promyelocytic Leukemia (HL-60); test: MTT cytotoxicity, HL-60; assay type: cell-based; settings: growth inhibition
Excerpt: Human promyelocytic leukemia (HL-60), human hepatocellular carcinoma (HepG2), Human cervix epitheloid carcinoma cells (HeLa) and human oral epidermoid carcinoma cells (KB-3-1), were obtained from American Type Culture Collection (ATCC) (Rockville, Md.). The multi-drug-resistant variant KB-V1 cell line was obtained by stepwise selections for vinblastine resistance as described by Shen et al., J. Biol. Chem. 261:7762-7770 (1986)], and was generously provided by Dr Michael Gottesman (NIH, Bethesda, Md.). Human nasopharyngeal carcinoma cells (SUNE1 and its cisplatin resistance variant, CNE1) were derived from poorly differentiated NPC in Chinese patients as described by Gu et al., Chin. J. Cancer 2:270-272 (1983), and were generously provided by Dr S. W. Tsao (The University of Hong Kong, Hong Kong, PRC). Cell culture flasks and 96 well microtitre plates were from Nalge Nunc hit. Culture medium, other medium constituents and phosphate buffered saline (PBS) were obtained from Gibco BRL (Rockville, Md.). Cell Proliferation Kit I (MTT) was purchased from Roche (Mannheim, Germany).
The anti-cancer activities of the gold(III) porphyrin complexes were evaluated toward some established human cancer cell lines: promyelocytic leukemia (HL-60), hepatocellular carcinoma (HepG2), cervix epitheloid carcinoma (HeLa), epidermoid carcinoma (KB-3-1) and its multi-drug resistant variant (KB-V1), nasopharyngeal carcinoma (SUNE1) and its cisplatin-resistant variant (CNE1). The experiments were carried out by following the MTT procedure (see Mosmann et al., J. Immunol. Methods 65:55-63 (1983). The IC50 values of the gold(III) porphyrin complexes together with that of cisplatin, and KAuCl4 are provided in Table 4a; and the IC50 values of the gold(III) Schiff-base and bis(pyridyl)carboxamide complexes are shown in Table 4b. The cytotoxicity profiles of some selected gold(III) porphyrin complexes toward SUNE1 and its cisplatin-resistant variant CNE1 are also shown in FIG. 7.

SMILES: C1=Cc2nc1c(-c1ccccc1)c1ccc([n-]1)c(-c1ccccc1)c1nc(c(-c3ccccc3)c3ccc([n-]3)c2-c2ccccc2)C=C1.[Au+3].[Cl-] [Complex 1a]
- hypochromicity ([1]; Tris buffer, 292.8 K): 53.4%
- hypochromicity ([1]; Tris buffer, 298.0 K): 50.3%
- intrinsic binding constant (Kb) ([1]; Tris buffer, 298.0 K): 2.14 × 10^6 dm^3mol^−1
- hypochromicity ([1]; Tris buffer, 302.3 K): 49.5%
- intrinsic binding constant (Kb) ([1]; Tris buffer, 302.3 K): 1.98 × 10^6 dm^3mol^−1
- hypochromicity ([1]; Tris buffer, 307.2 K): 47.1%
- intrinsic binding constant (Kb) ([1]; Tris buffer, 307.2 K): 1.55 × 10^6 dm^3mol^−1
- hypochromicity ([1]; Tris buffer, 311.6 K): 46.3%
- intrinsic binding constant (Kb) ([1]; Tris buffer, 311.6 K): 1.35 × 10^6 dm^3mol^−1
- hypochromicity ([1]; Tris buffer, 316.5 K): 43.4%
- intrinsic binding constant (Kb) ([1]; Tris buffer, 316.5 K): 0.94 × 10^6 dm^3mol^−1
- hypochromicity ([1]; Tris buffer, 321.9 K): 42.5%
- intrinsic binding constant (Kb) ([1]; Tris buffer, 321.9 K): 0.82 × 10^6 dm^3mol^−1
- ΔG° (298 K) ([1]; binding to calf thymus DNA, van't Hoff analysis, 298 K): −8.7 ± 0.4
- hypochromicity of the Soret band ([1]; calf thymus DNA (0-5 μM), Tris buffer): 44%
- hypochromicity of the Q-band at 520 nm ([1]; calf thymus DNA (0-5 μM), Tris buffer, 2% DMSO): 40%
- 1H NMR spectral changes ([2]; GSH (2 mM), D2O/CD3CN (9:1 v/v), room temperature): no significant spectral changes were observed
- changes of 1H NMR spectral pattern in the aromatic region (δH 7.2-8.4 ppm) ([2]; with GSH): did not observe any significant changes of the spectral pattern
- hypochromicity of the Soret band [3]: 48%
- cell morphology (type of cell death) [4]: living cells and apoptotic cells were observed
- decrease in the Soret band intensity ([5]; 2.5 μM in Tris buffer/MeCN (19:1), 48 h): less than 10%
- decrease of the Soret band intensity ([5]; glutathione 2 mM in Tris buffer/MeCN=19:1, 48 h): about 27%
- IC50 [6]: 0.73 µM
